Measured values from patent US20240238243A1, “METHODS AND COMPOSITIONS FOR TREATMENT OF HEART FAILURE WITH PRESERVED EJECTION FRACTION” (Northwestern University, priority 2023, published 2024).

Experiments:
OGT = molecular target: T1, OGT (Mus musculus, UniProt Q8CGY8); settings: Liu et al., 2018; cited from earlier work
T1 sequence (Q8CGY8 2-1046 limits assumed): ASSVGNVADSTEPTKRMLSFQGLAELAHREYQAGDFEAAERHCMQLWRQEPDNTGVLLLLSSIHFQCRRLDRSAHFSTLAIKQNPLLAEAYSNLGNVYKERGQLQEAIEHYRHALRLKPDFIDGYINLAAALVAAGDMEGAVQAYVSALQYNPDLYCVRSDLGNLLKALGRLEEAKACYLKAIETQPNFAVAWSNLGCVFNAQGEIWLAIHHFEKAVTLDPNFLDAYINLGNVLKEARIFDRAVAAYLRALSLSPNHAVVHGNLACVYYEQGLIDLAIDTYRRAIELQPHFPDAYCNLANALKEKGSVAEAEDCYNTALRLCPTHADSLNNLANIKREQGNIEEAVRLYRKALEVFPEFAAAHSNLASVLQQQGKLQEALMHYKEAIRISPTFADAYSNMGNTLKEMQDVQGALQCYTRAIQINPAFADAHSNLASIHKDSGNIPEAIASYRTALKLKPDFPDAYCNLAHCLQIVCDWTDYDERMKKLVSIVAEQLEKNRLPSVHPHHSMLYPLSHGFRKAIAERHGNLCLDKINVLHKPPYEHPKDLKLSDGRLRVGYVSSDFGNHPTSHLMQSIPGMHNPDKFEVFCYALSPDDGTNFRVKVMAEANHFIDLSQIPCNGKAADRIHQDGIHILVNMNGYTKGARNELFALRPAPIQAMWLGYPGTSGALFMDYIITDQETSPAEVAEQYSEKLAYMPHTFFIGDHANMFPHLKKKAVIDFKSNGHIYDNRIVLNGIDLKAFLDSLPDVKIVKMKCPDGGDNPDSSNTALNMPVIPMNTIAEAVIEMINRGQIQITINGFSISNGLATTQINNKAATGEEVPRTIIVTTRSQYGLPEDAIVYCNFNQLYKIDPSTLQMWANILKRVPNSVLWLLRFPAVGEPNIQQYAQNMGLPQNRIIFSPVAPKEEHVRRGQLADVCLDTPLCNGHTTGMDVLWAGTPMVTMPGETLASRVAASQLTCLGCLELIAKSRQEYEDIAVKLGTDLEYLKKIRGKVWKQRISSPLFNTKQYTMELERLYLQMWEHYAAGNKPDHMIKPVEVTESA

[1] = tested on: C57BL/6J mice treated with HFD_L-NAME; experiment: HFD_L-NAME HFpEF mouse model: echocardiography, heart weight, treadmill exercise test; type: in vivo
From the text: HKΔE1HK1/Δ^E1HK1 (ΔE1HK1) and HK1^WT/WT wild-type (WT) control mice were generated by the Northwestern Mutagenesis and Transgenic core (De Jesus et al., 2022). Briefly, guide RNAs (gRNAs) were designed to induce a double-strand break (DSB) near the 5′ ATG start codon of HK1 in exon 1, and a DNA template containing an M-DYKDDDDK (Methionine-FLAG-tag) sequence with flanking homology arms to the HK1 gene near exon 1 was introduced into fertilized zygotes and implanted into surrogate mice. […] Mouse's genetic background is C57BL/6J. Tie2-Tet-OGA mice are generous gifts from Dr. Dillmann and Dr. Makino (Makino etal., 2015). Mice were maintained in the barrier facility at Northwestern University under specific pathogen-free conditions under the Federal and University guidelines and protocols approved by Institutional Animal Care and Use Committee (IACUC) with 12 hr light and 12 hr dark cycles and received normal chow (NC). Male and female ΔE1HK1 mice were used at 8-40 weeks of age. 8-week-old ΔE1HK1 male mice were fed HFD consisting of 60% fat, 20% protein, and 20% carbohydrates for 20 weeks. To produce the HFpEF mice model, C57BL/6J and Tie2-Tet-OGA mice were fed HFD and 0.5 g/L ofN.-Nitro-L-arginine methyl ester (LNAME, Sigma-Aldrich) for 8-15 weeks. For the induction of OGA overexpression, 0.5 g/L of DOX in drinking water was administered to Tie2-Tet-OGA mice until they were sacrificed. All animal studies were approved by the IACUC at Northwestern University and were performed in accordance with guidelines from the National Institutes of Health.
Mice were anesthetized using isoflurane via a nasal cone, the chest was shaved, and the temperature of the mice was maintained at 37° C. The heart rate was continually monitored. Transthoracic echocardiography was performed using a VisualSonics Vevo 2100 system equipped with an MS400 transducer (FUJIFILM). LVEF and other indices of systolic function and thickness of LV walls were obtained from short-axis M-mode scans at the midventricular level, as indicated by the presence of papillary muscles. Apical four-chamber views were obtained for diastolic function measurements using pulsed-wave and tissue doppler imaging at the level of the mitral valve. During echocardiogram acquisition, isoflurane was maintained in 1.0-1.5% to maintain a heart rate in the range of 400-450 beats per min. All parameters were measured at least three times, and means are presented.
The exercise exhaustion test was performed as previously described (Schiattarella et al., 2019). After three days of acclimatization to treadmill exercise, an exhaustion test was performed in the experimental groups of mice. Mice ran uphill (20°) on the treadmill (Columbus Instruments) starting at a warm-up speed of 5 m/min for 3 min after which speed was increased to 14 m/min for 2 min. Every subsequent 2 min, the speed was increased by 2 m/min until the mouse was exhausted. Exhaustion was defined as the inability of the mouse to return to running within 10 s of direct contact with an electric-stimulus grid. Running time was measured and running distance calculated.

protein O-GlcNAcylation = experiment: Immunoblot of protein O-GlcNAcylation after intraperitoneal 5S-GlcNHex; type: in vivo, mouse
Protocol: Protein extracts from frozen mouse hearts, isolated cardiomyocytes, fibroblasts, endothelial cells, and HUVECs were prepared by lysis in ice-cold RIPA buffer (150 mM NaCl, 25 mM Tris-HCl pH 7.4, 1% NP-40, 1% sodium deoxycholate, 0.1% SDS) containing protease inhibitors. For analyses of O-GlcNAcylation, 200 μg/ml of PUGNAC (Sigma-Aldrich) was added to the RIPA buffer. Proteins were separated by sodium dodecyl sulfate-polyacrylamide gel electrophoresis (SDS-PAGE) on 8 or 10% polyacrylamide gels and transferred to nitrocellulose membranes. Membranes were incubated with the following primary antibodies overnight, before the addition of HRP-conjugated secondary antibodies: HK1 (2024, Cell Signaling Technology); HK2 (2867, Cell Signaling Technology); GAPDH (60004-1-Ig, Proteintech); FLAG (F1804, Sigma-Aldrich); alpha-tubulin (66031-1-Ig, Proteintech); ATP synthase C (ab181243, Abcam); Phospho-AMPKα (Thr172) (4188, Cell Signaling Technology); AMPKα (2603, Cell Signaling Technology); GFPT1 (14132-1-Ig, Proteintech); RPN1 (12894-1-AP, Proteintech); RPN2 (10576-1-AP, Proteintech); DDOST (14916-1-AP, Proteintech); GFP (66002-1-Ig, Proteintech), O-Linked N-Acetylglucosamine (ab2739, Abcam); OGT (11576-2-AP, Proteintech); OGA (66033-1-Ig, Proteintech). The presence of target protein was visualized using Super Surgical Western Pico ECL substrate (Pierce). Quantification of the western blotting images was done using ImageJ (NIH).

ECs from ΔE1HK1 mice = experiment: Tube formation assay in isolated ECs from ΔE1HK1 mice treated with ST045849; type: cell-based, mouse; settings: 20 μM, FIGS. 7H and 7I
Protocol: Endothelial cells (ECs) were isolated from mouse hearts as previously described (Luo et al., 2016; van Beijnum et al., 2008). Briefly, dissected mouse heart was minced and incubated with PBS containing 2% fetal bovine serum (FBS), 1 mg/ml collagenase II (Worthington), and 0.6 U/ml dispase II (Sigma-Aldrich) for 30 mins at 37° C. 7.5 μg/ml of DNase I (Sigma-Aldrich) was added to the digested hearts and additional incubation for 30 minutes was performed. The digested material was filtered through 40 μm cell strainer, then incubated with biotinylated anti-CD45 antibody (Invitrogen) and depleted of CD45 positive cells using EasySep Mouse Streptavidin (STEMCELL technologies) as described in the manufacture's protocol. […]
The formation of tube networks was assessed as described before (Das et al., 2018). […] Following an 18 hour-incubation, tube networks from each biological replicate were analyzed in at least three random fields by light microscopy. The number of branch points (junctions), segments and meshes, and total length of tubule networks (total length of branching) were quantified by Fiji software (Angiogenesis Analyzer).

[2] = tested on: genes related to UPR in HUVEC; experiment: mRNA levels of genes related to UPR (Xbp1s, Hspa5) in HUVEC treated with tunicamycin; type: cell-based, human; settings: FIGS. 6N and 6O
Protocol: RNA was isolated from cells or heart samples using RNA-STAT60 (Tel-Test), and reverse transcribed with Taqman Reverse Transcription Reagents (Invitrogen) according to manufacturers' instructions. Quantification of relative gene expression was done using Fast SYBR Green Master Mix (Applied Biosystems) and run on 7500 Fast Real-Time PCR system (Applied Biosystems). The relative gene expression was determined using differences in Ct values between the gene of interest and house-keeping control genes, which are Actb, Hprt1, and/or 18S, depending on the experiment.

HUVECs = experiment: Tube formation assay in HUVECs treated with tunicamycin; type: cell-based, human; settings: HUVECs, 0, 30, 50, and 100 nM, FIG. 6P
Protocol: The formation of tube networks was assessed as described before (Das et al., 2018). HUVECs and isolated ECs were seeded at 20,000 and 45,000cells per well in a 96-well plate coated with […] Matrigel (Fisher Scientific) or Cultrex (R & D Systems) reduced growth factor basement membrane matrix. The cells were treated with EGM-2 medium containing tunicamycin (Sigma-Aldrich) or ST045849 (Sigma-Aldrich) wherever mentioned. Following an 18 hour-incubation, tube networks from each biological replicate were analyzed in at least three random fields by light microscopy. The number of branch points (junctions), segments and meshes, and total length of tubule networks (total length of branching) were quantified by Fiji software (Angiogenesis Analyzer).

[3] = tested on: protein N-glycosylation in HUVEC; experiment: Lectin blot with ConA-HRP of HUVEC treated with tunicamycin (dose-curve); type: cell-based, human; settings: preliminary dose-curve experiments, FIG. 6M
Protocol: HUVECs were purchased from Lonza and grown in EGM2 media (Lonza). HEK293T cells were purchased from ATCC and cultured in DMEM (Corning) with 10% FBS (Bio-Techne Sales Corp.). All cells were maintained in a 37° C. incubator with 5% CO2 and were 70% to 90% confluent when collected for analyses.
Nitrocellulose membranes with blotted proteins were blocked with PBS containing 2% Tween 20 for 2 minutes at room temperature. They were rinsed with PBS twice, then incubated with 1 μg/ml of ConA-HRP (Sigma-Aldrich) in PBS containing 0.05% Tween 20, 1 mM CaCl2), 1 mM MnCl2, and 1 mM MgCl2 for 16 hours at room temperature avoiding exposure to the light. The presence of proteins conjugated with the lectin was visualized using Super Surgical Western Pico ECL substrate (Pierce). Quantification of the images was done using ImageJ (NIH).

[4] = 30 mg/kg every 48 hours for 10 weeks following 5 weeks of HFD_L-NAME
[5] = 50 mg/kg for 3 weeks following 5 weeks of HFD_L-NAME
[6] = 20 and 30 mg/kg every 48 hours for 10 weeks following 5 weeks of HFD_L-NAME
[7] = isolated ECs, intraperitoneal, dose dependency study, FIG. 9A
[8] = single intraperitoneal injection of 50 mg/kg, FIG. 9M

## CCCCCC(=O)N[C@H]1C(O)S[C@H](CO)[C@@H](O)[C@@H]1O (stereo partly drawn) [5S-GlcNHex, 2-deoxy-2-N-hexanamide-5-thio-D-glucopyranoside]
OGT
  in vivo efficacy among OGT inhibitors: significant in vivo efficacy
[1]; 20 mg/kg every 48 hours for 10 weeks following 5 weeks of HFD_L-NAME
  increased E/A ratio: reversed
[1]; [4]
  exercise capacity (treadmill test): significant improvement
  increased E/A ratio: reversed
[1]; [5]
  EF: no discernable effects
  cardiac hypertrophy as indicated by PWTd: ameliorated
  cardiac hypertrophy as indicated by heart weights: ameliorated
  decreased e': substantially restored
  increased E/A: substantially restored
  increased E/e': substantially restored
  increased LA area: substantially restored
[1]; 50 mg/kg, FIGS. 9M-9X
  HFpEF phenotype: reverses the HFpEF phenotype
[1]; [6]
  EF: no significant changes
  LV diameter in systole (LVDs): no significant changes
  LVDd: no significant changes
  fraction shortening (FS): no significant changes
  increased LA sizes: tendency to decrease
  increased heart weights: tendency to decrease
[1]; summary statement
  HFpEF phenotype: reversal of the HFpEF phenotype
Protein O-GlcNAcylation; [7]
  dose at which reduction of protein O-GlcNAcylation reached a plateau: 30 mg/kg
  dose that initiated the reduction of protein O-GlcNAcylation: 20 mg/kg
Protein O-GlcNAcylation; single intraperitoneal injection of 50 mg/kg, C57BL6/J mice
  protein O-GlcNAcylation in various organs: effectively curtailed
Protein O-GlcNAcylation; [8]
  time after which protein O-GlcNAcylation returns to baseline: 72 h
  time over which protein O-GlcNAcylation is reduced: 48 h
Protein O-GlcNAcylation; summary statement
  protein O-GlcNAcylation in ECs in vivo: successfully reduces

## O=C(O)C1CC(=O)N(CCC23CC4CC(CC(C4)C2)C3)C(=Nc2ccc(Cl)cc2)S1 (stereo not shown) [ST045849]
ECs from ΔE1HK1 mice
  tube formation: number of junctions: significant enhancement
  tube formation: total length of branching: significant enhancement

## tunicamycin
[2]
  mRNA levels of genes related to UPR: acted in the same manner as observed in N-glycosylation experiments
HUVECs
  tube formation (number of junctions, total length of branching): no significant effects
[3]
  concentration at which reduced protein N-glycosylation was confirmed: 20 nM
  concentration at which reduction of protein N-glycosylation reaches plateau: 50 nM
